This note sets out measurements from patent US20230391845A1, “GLP-1, GIP AND GLUCAGON RECEPTOR TRIPLE AGONISTS” (priority 2020, published 2023).

The target of one data set is T1, human GLP-1 receptor (Homo sapiens, UniProt P43220).
T1 construct: expressed in transfected cells; host or cells: BHK cells (parent line BHKTS13) containing CRE luciferase
The data set can be described thus: In vitro functional potency (CRE luciferase; whole cells), human GLP-1R. Conditions: BHK CRE luc2P hGLP-1R whole cells; Table 2; read-out: hGLP-1R CRE Luc EC50. Type of data set: cell-based.

Another data set deals with T2, human Gcg receptor (Homo sapiens, UniProt P47871).
T2 construct: expressed in transfected cells; host or cells: BHK cells (parent line BHKTS13) containing CRE luciferase
The data set can be described thus: In vitro functional potency (CRE luciferase; whole cells), human GcgR. Type of data set: cell-based. Conditions: BHK CRE luc2P hGcgR whole cells; Table 2; read-out: hGcgR CRE Luc EC50.

Data set [1] can be described thus: Pharmacokinetic study in minipigs, i.v. administration. Also noted: species or system Göttingen minipigs. The settings on record: female, Göttingen, minipig, in vivo, iv; minipigs, i.v. administration, harmonic mean; read-out: Terminal half-life t1/2 (converted). An outline of the steps:
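Female Göttingen minipigs (7-14 months, 16-35 kg), fasted ~18 h pre-dose to 4 h post-dose, received i.v. injections of usually 1.5-2 nmol/kg via central venous catheter. Plasma sampled up to 14 days, assayed by ELISA or LCMS; terminal half-life (harmonic mean) from non-compartmental analysis.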

The nature of data set [2]: Maximal efficacy study in DIO mice, daily s.c. dose titration for up to 60 days (body weight, food intake). It counts as in vivo, C57BL/6J male mice. Conditions: for Absolute BW (grams) Day 0: Day 0 (baseline); for Absolute BW (grams) Day 0 / Absolute BW (grams) Last day of treatment / Change in BW (%) Last day of treatment: mean ± SEM; for Absolute BW (grams) Last day of treatment / Change in BW (%) Last day of treatment / Average food intake per mouse (grams/day): s.c. once daily; for Absolute BW (grams) Last day of treatment / Change in BW (%) Last day of treatment: dose titration of Table 4, last day of treatment; for Average food intake per mouse (grams/day): dose titration of Table 4, mean ± SEM, n = 1-2. Here is the method:
The purpose of this example is to assess the in vivo effect of selected triple agonists on pharmacodynamic parameters in diet-induced obese (DIO) mice. The animals were treated once daily via subcutaneous injection with a liquid formulation of the triple agonist to be tested to assess effects on body weight, foot intake, and glucose tolerance.
C57BL/6J male mice were purchased from Jackson Laboratories at approximately 8 weeks of age. Mice were group housed and fed a high-fat, high-sugar diet from Research Diets (D12331). Mice were maintained on this diet for 12 weeks prior to initializing the pharmacology studies. Mice exceeding a measured body weight of 50 grams were considered diet-induced obese (DIO) and included in pharmacology studies. Mice were exposed to a controlled 12 h:12 h light:dark cycle at ambient room temperature (22° C.) with ab libitum access to food and water. Studies were approved by and performed according to the guidelines of the Institutional Animal Care and Use Committee of the University of Cincinnati.
All compounds in the study were formulated in the following buffer: 50 mM phosphate; 70 mM sodium chloride; 0.05% Tween-80, pH 7.4. Dosing solutions were formulated in glass vials and stored at 2-8° C. Dosing solutions were brought to room temperature before dosing and returned to 2-8° C. after dosing.
DIO mice were distributed into groups (n=8 per group) such that statistical variations in the mean and standard deviations of fat mass and body weight were minimized between groups. The animals were grouped to receive treatment as follows: Vehicle or GLP-1/GIP/Gcg receptor triple agonists as described herein, where vehicle is 50 mM phosphate, 70 mM sodium chloride; 0.05% (v/v) Tween-80, pH 7.4. The test compounds were dissolved in the vehicle, to stock concentrations of […], then diluted 50- to 200-fold in the vehicle to achieve the desired dosing solution concentrations. Animals were dosed subcutaneously once daily in the morning for each day of treatment with dosing solution at a volume of 2-5 μL per gram of body weight as necessary to achieve the desired dose (e.g. 0.3 nmol/kg, 1.0 nmol/kg, or 3.0 nmol/kg).
Body weight (BW) and food intake were measured immediately prior to dosing each day. The percent change in body was calculated individually for each mouse based on initial body weight prior to the first injection.
In one study, DIO mice received a daily subcutaneous dose for up to 60 days of one of the following: vehicle, Compound No. 21, Compound No. 30, or Compound No. 33. The dose of each compound was up-titrated to maximal efficacy based on the titration schedule included in Table 4. Mice that achieved body weight normalization, defined as a body weight of 22.5 g or less, were voluntarily removed from the study. All triple agonist compounds tested resulted is substantially greater reductions of body weight and food intake than vehicle. […] This may be explained by the similar GLP-1R and GIPR in vitro potency but reduced in vitro GcgR potency of Compound No. 21 compared to Compound No. 30 and Compound No. 33 when investigated with the protocol described in Example 2 except using the mouse-specific receptors.

Each structure is given as a SMILES string. *1 amine or outer side, *2 acyl side, *3 side chain or, on linkers, in order; H or OH if unused. Where a SMILES comes first, the peptide text is derived from it. Side-chain parts run from the residue outwards. [ ]: non-standard residue; d: D form. The star is where a group is joined. C20 diacid = O=C(O)CCCCCCCCCCCCCCCCCCC(=O)*; C18 diacid = O=C(O)CCCCCCCCCCCCCCCCC(=O)*; γGlu = O=C(O)[C@H](CCC(=O)[*:2])N[*:1]; εLys = N[C@@H](CCCCN[*:1])C(=O)[*:2]; Aib = CC(C)(N)C(=O)O

T2 sequence (P47871 26-477): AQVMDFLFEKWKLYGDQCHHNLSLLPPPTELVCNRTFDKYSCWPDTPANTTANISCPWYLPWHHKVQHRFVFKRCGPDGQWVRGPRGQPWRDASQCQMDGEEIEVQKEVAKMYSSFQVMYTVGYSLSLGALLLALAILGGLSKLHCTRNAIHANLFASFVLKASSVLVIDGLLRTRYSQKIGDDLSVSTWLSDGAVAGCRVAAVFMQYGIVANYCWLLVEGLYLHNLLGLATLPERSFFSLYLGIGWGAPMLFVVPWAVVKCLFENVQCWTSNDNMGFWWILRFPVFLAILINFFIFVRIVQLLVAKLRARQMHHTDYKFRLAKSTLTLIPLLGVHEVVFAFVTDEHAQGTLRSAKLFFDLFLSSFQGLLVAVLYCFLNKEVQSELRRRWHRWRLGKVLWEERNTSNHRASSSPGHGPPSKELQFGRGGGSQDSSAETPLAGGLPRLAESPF
T1 sequence (P43220 24-463): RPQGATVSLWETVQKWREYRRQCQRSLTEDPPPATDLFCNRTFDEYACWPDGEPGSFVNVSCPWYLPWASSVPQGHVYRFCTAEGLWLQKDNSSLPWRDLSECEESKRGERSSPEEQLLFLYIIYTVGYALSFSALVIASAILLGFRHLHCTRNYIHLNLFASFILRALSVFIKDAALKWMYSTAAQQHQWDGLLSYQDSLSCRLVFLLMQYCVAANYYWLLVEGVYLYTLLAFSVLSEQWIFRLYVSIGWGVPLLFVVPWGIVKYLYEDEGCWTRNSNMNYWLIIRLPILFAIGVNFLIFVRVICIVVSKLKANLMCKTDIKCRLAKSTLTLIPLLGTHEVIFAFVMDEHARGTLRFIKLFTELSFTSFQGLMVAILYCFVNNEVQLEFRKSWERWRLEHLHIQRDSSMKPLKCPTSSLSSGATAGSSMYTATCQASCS
Procedure for human Gcg receptor: The purpose of this example is to test the functional activity, or potency, of the compounds in vitro at the human and mouse GLP-1, GIP, and Gcg receptors. The in vitro functional potency is the measure of target receptor activation in a whole cell assay.
In vitro functional potency was determined by measuring the response of the target receptor in a reporter gene assay in individual cell lines. The assay was performed in stably transfected BHK cell lines that expresses one of the following G-protein coupled receptors: human GLP-1 receptor, human GIP receptor, human Gcg receptor, mouse GLP-1 receptor, mouse GIP receptor, or mouse Gcg receptor; and where each cell line contains the DNA for the cAMP response element (CRE) coupled to a promoter and the gene for firefly luciferase (CRE luciferase). When the respective receptor is activated, it results in the production of cAMP, which in turn results in expression of the luciferase protein. When assay incubation is completed, luciferase substrate (luciferin) is added resulting in the enzymatic conversion of luciferin to oxyluciferin and producing bioluminescence. The luminescence is measured as the readout for the assay.
The cells lines used in these assays were BHK cells with BHKTS13 as a parent cell line. The cell lines were derived from a clone containing the CRE luciferase element and were established by further transfection with the respective receptor to obtain the relevant cell line.
The cells were cultured at 37° C. with 5% CO2 in Cell Culture Medium. They were aliquoted and stored in liquid nitrogen. The cells were kept in continuous culture and were seeded out the day before each assay.
GLP-1R and GcgR Cell Culture Medium consisted of DMEM medium with 10% FBS, 500 µg/mL G418, and 300 µg/mL hygromycin. GIPR Cell Culture Medium consisted of DMEM medium with 10% FBS, 400 µg/mL G418, and 300 µg/mL hygromycin. Assay Buffer consisted of DMEM w/o phenol red, 10 mM Hepes, 1× Glutamax, 1% ovalbumin, and 0.1% Pluronic F-68.
• 1) Cells were plated at 5000 cells/well and incubated overnight in the assay plate. • 2) Cells were washed once in DPBS. • 3) Stocks of the test compounds and reference compounds in concentrations ranging from 100-300 pM were diluted 1:150 in Assay Buffer.
The data from the microtiter plate reader was first regressed in an Excel in order to calculate the x-axis, log scale concentrations based on the individual test compound's stock concentration and the dilutions of the assay. […] The software performs a non-linear regression (log(agonist) vs response). A minimum of two replicates was measured for each sample. The reported values are averages of the replicates.

As for `CC[C@H](C)[C@H](NC(=O)[C@H](CO)NC(=O)[C@H](Cc1ccc(O)cc1)NC(=O)[C@H](CC(=O)O)NC(=O)[C@H](CO)NC(=O)[C@@H](NC(=O)[C@H](Cc1ccccc1)NC(=O)[C@@H](NC(=O)CNC(=O)[C@H](Cc1c[nH]cn1)NC(=O)C(C)(C)NC(=O)[C@@H](N)Cc1c[nH]cn1)[C@@H](C)O)[C@@H](C)O)C(=O)N[C@@H](Cc1ccc(O)cc1)C(=O)N[C@@H](CC(C)C)C(=O)N[C@@H](CCC(=O)O)C(=O)N[C@@H](CCCCNC(=O)[C@@H](N)CCCCNC(=O)[C@@H](N)CCCCNC(=O)CC[C@H](NC(=O)CCCCCCCCCCCCCCCCC(=O)O)C(=O)O)C(=O)N[C@@H](CCCCN)C(=O)N[C@@H](Cc1ccc(O)cc1)C(=O)N[C@@H](C)C(=O)NC(C)(C)C(=O)N[C@@H](CCC(=O)O)C(=O)N[C@@H](Cc1ccccc1)C(=O)N[C@H](C(=O)N[C@@H](CCC(N)=O)C(=O)N[C@@H](Cc1c[nH]c2ccccc12)C(=O)N[C@@H](CC(C)C)C(=O)N[C@@H](CC(C)C)C(=O)N[C@@H](CCC(=O)O)C(=O)NCC(=O)NCC(=O)N1CCC[C@H]1C(=O)N[C@@H](CO)C(=O)N[C@@H](CO)C(=O)NCC(=O)N[C@@H](C)C(=O)N1CCC[C@H]1C(=O)N1CCC[C@H]1C(=O)N1CCC[C@H]1C(=O)N[C@@H](CO)C(N)=O)C(C)C` [Compound No. 38] (H-H[Aib]HGTFTSDYSIYLEK([εLys-εLys-γGlu-C18 diacid])KYA[Aib]EFVQWLLEGGPSSGAPPPS-NH2), the EC50 – broadly, the midpoint of the concentration-response curve – at human GLP-1 receptor was determined as 2.8 pM; on human Gcg receptor, 6.4 pM.

`CC[C@H](C)[C@H](NC(=O)[C@H](CO)NC(=O)[C@H](Cc1ccc(O)cc1)NC(=O)[C@H](CC(=O)O)NC(=O)[C@H](CO)NC(=O)[C@@H](NC(=O)[C@H](Cc1ccccc1)NC(=O)[C@@H](NC(=O)CNC(=O)[C@H](Cc1c[nH]cn1)NC(=O)C(C)(C)NC(=O)[C@@H](N)Cc1c[nH]cn1)[C@@H](C)O)[C@@H](C)O)C(=O)N[C@@H](CC(C)C)C(=O)N[C@@H](CC(C)C)C(=O)N[C@@H](CCC(=O)O)C(=O)N[C@@H](CCCCNC(=O)[C@@H](N)CCCCNC(=O)[C@@H](N)CCCCNC(=O)CC[C@H](NC(=O)CCCCCCCCCCCCCCCCC(=O)O)C(=O)O)C(=O)N[C@@H](CCC(N)=O)C(=O)N[C@@H](C)C(=O)N[C@@H](C)C(=O)N[C@@H](Cc1c[nH]cn1)C(=O)N[C@@H](CCC(=O)O)C(=O)N[C@@H](Cc1ccccc1)C(=O)N[C@H](C(=O)N[C@@H](CCC(N)=O)C(=O)N[C@@H](Cc1c[nH]c2ccccc12)C(=O)N[C@@H](CC(C)C)C(=O)N[C@@H](CC(C)C)C(=O)N[C@@H](CCC(=O)O)C(=O)NCC(=O)NCC(=O)N1CCC[C@H]1C(=O)N[C@@H](CO)C(=O)N[C@@H](CO)C(=O)NCC(=O)N[C@@H](C)C(=O)N1CCC[C@H]1C(=O)N1CCC[C@H]1C(=O)N1CCC[C@H]1C(=O)N[C@@H](CO)C(=O)O)C(C)C` [Compound No. 56] (H-H[Aib]HGTFTSDYSILLEK([εLys-εLys-γGlu-C18 diacid])QAAHEFVQWLLEGGPSSGAPPPS-OH): the EC50 at human Gcg receptor came to 6.4 pM.

Consider `CC[C@H](C)[C@H](NC(=O)[C@H](CO)NC(=O)[C@H](Cc1ccc(O)cc1)NC(=O)[C@H](CC(=O)O)NC(=O)[C@H](CO)NC(=O)[C@@H](NC(=O)[C@H](Cc1ccccc1)NC(=O)[C@@H](NC(=O)CNC(=O)[C@H](Cc1c[nH]cn1)NC(=O)C(C)(C)NC(=O)[C@@H](N)Cc1c[nH]cn1)[C@@H](C)O)[C@@H](C)O)C(=O)N[C@@H](Cc1ccc(O)cc1)C(=O)N[C@@H](CC(C)C)C(=O)N[C@@H](CCC(=O)O)C(=O)N[C@@H](CCCCNC(=O)[C@@H](N)CCCCNC(=O)[C@@H](N)CCCCNC(=O)CC[C@H](NC(=O)CCCCCCCCCCCCCCCCCCC(=O)O)C(=O)O)C(=O)N[C@@H](CCCCN)C(=O)N[C@@H](Cc1ccc(O)cc1)C(=O)N[C@@H](C)C(=O)NC(C)(C)C(=O)N[C@@H](CCC(=O)O)C(=O)N[C@@H](Cc1ccccc1)C(=O)N[C@H](C(=O)N[C@@H](CCC(N)=O)C(=O)N[C@@H](Cc1c[nH]c2ccccc12)C(=O)N[C@@H](CC(C)C)C(=O)N[C@@H](CC(C)C)C(=O)N[C@@H](CCC(=O)O)C(=O)NCC(=O)NCC(=O)N1CCC[C@H]1C(=O)N[C@@H](CO)C(=O)N[C@@H](CO)C(=O)NCC(=O)N[C@@H](C)C(=O)N1CCC[C@H]1C(=O)N1CCC[C@H]1C(=O)N1CCC[C@H]1C(=O)N[C@@H](CO)C(N)=O)C(C)C` [Compound No. 30] (H-H[Aib]HGTFTSDYSIYLEK([εLys-εLys-γGlu-C20 diacid])KYA[Aib]EFVQWLLEGGPSSGAPPPS-NH2; N-terminus assumed), for which the half-life in data set [1] was 78 h. For the same molecule, in data set [2], the “Absolute BW (grams) Day 0” value was 56.2 ± 1.3 grams, the “Absolute BW (grams) Last day of treatment” value was found to be 22.2 ± 0.3 grams, the “Change in BW (%) Last day of treatment” value was −60.5 ± 0.4% and the “Average food intake per mouse (grams/day)” value amounted to 1.39 ± 0.13 grams/day.

`CC[C@H](C)[C@H](NC(=O)[C@H](CO)NC(=O)[C@H](Cc1ccc(O)cc1)NC(=O)[C@H](CC(=O)O)NC(=O)[C@H](CO)NC(=O)[C@@H](NC(=O)[C@H](Cc1ccccc1)NC(=O)[C@@H](NC(=O)CNC(=O)[C@H](Cc1c[nH]cn1)NC(=O)C(C)(C)NC(=O)[C@@H](N)Cc1c[nH]cn1)[C@@H](C)O)[C@@H](C)O)C(=O)N[C@@H](Cc1ccc(O)cc1)C(=O)N[C@@H](CC(C)C)C(=O)N[C@@H](CCC(=O)O)C(=O)N[C@@H](CCCCNC(=O)[C@@H](N)CCCCNC(=O)[C@@H](N)CCCCNC(=O)CC[C@H](NC(=O)CCCCCCCCCCCCCCCCCCC(=O)O)C(=O)O)C(=O)N[C@@H](CCCCN)C(=O)N[C@@H](C)C(=O)N[C@@H](C)C(=O)NC(C)(C)C(=O)N[C@@H](CCC(=O)O)C(=O)N[C@@H](Cc1ccccc1)C(=O)N[C@H](C(=O)N[C@@H](CCC(N)=O)C(=O)N[C@@H](Cc1c[nH]c2ccccc12)C(=O)N[C@@H](CC(C)C)C(=O)N[C@@H](CC(C)C)C(=O)N[C@@H](CCC(=O)O)C(=O)NCC(=O)NCC(=O)N1CCC[C@H]1C(=O)N[C@@H](CO)C(=O)N[C@@H](CO)C(=O)NCC(=O)N[C@@H](C)C(=O)N1CCC[C@H]1C(=O)N1CCC[C@H]1C(=O)N1CCC[C@H]1C(=O)N[C@@H](CO)C(N)=O)C(C)C` [Compound No. 33] (H-H[Aib]HGTFTSDYSIYLEK([εLys-εLys-γGlu-C20 diacid])KAA[Aib]EFVQWLLEGGPSSGAPPPS-NH2): the half-life in data set [1] was 47 h. Also, in data set [2], the “Absolute BW (grams) Day 0” value is listed as 54.9 ± 2.6 grams, the “Absolute BW (grams) Last day of treatment” value is on record as 24.8 ± 1.4 grams, the “Change in BW (%) Last day of treatment” value is −54.5 ± 3.5% and the “Average food intake per mouse (grams/day)” value turned out to be 1.38 ± 0.25 grams/day.
